Our source for the GI50 values is patent US9561228B2 (Celgene Avilomics Research, Inc., priority 2013, dated 2017).

Common to all, as to format: cell-based
Test [1] has as its system HT-29 cells (colorectal adenocarcinoma). Description: Inhibition of cancer cell proliferation, HT-29 (CellTiterGlo, 72 hours). The following applies: Homo sapiens. Summed up:
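HT-29 cells seeded at 3000/well, then treated with 3-fold serial dilutions from a 5,000 nM two-fold solution in serum-free RPMI1640, untreated wells as control, for 72 h at 37° C. CellTiterGlo luminescence converted to cell number via a standard curve; GI50 from percent inhibition versus untreated growth.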
For orientation: ATP-based viability assays read luminescence as a measure of living cells.

Test [2] relates to HCT116 cells (colorectal carcinoma). The test is described as follows: Inhibition of cancer cell proliferation, HCT116 (CellTiterGlo, 72 hours). The following applies: Homo sapiens, HCT-116. On the procedure: Measurement of Inhibition of Cancer Cell Proliferation (HCT116/Colorectal Carcinoma)
The following protocol used a HCT116 cell line, which cell line is a model for colorectal carcinoma. HCT116 cells were split and 3000 cells in 100 μl of growth medium were added per well of a flat-bottom 96-well plate. A two-fold test compound solution in serum-free RPM1640 was made, starting at 5,000 nM. Then, 3-fold serial dilutions were made across the plate from well 1 to well 11. Well 12, the last well in a row on the plate, was left as untreated control. 100 μl compound solutions were then transferred to the wells, so the total volume of media was 200 μl per well. Plates were returned to a 37° C. incubator, and the cells were cultured for 72 hours. To measure cell proliferation after 72 hours, media was discarded from the plates, 50 μl/well of fresh medium was added, and 50 μl CellTiterGlo solution was added (Promega Cat#G7573). The plate was covered with a dark lid and incubated for 10 min. A white sealing tape was applied to the bottom of the plate, and the plate was read in a luminescence plate reader. […] 50 μl CellTiterGlo was added per well, and the plate was read in a luminescence plate reader after 10 min. The reading was plotted vs. cell number to generate a standard curve and the equation of the curve fit. The compound-treated sample luminescence readings were converted to cell numbers using the curve-fit equation. The percent of inhibition, using untreated control as 100% growth, was then calculated. GI50 was then calculated by GraphPad Prism.

The subject of test [3] is A375 cells (malignant melanoma). Description: Inhibition of cancer cell proliferation, A375 (CellTiterGlo, 72 hours). The following applies: Homo sapiens, A-375. Summed up:
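A375 melanoma cells, 3000/well, exposed 72 h at 37 °C to compound in 3-fold serial dilutions (solution added as 2× stock starting at 5,000 nM in serum-free DMEM). CellTiterGlo luminescence converted to cell number via standard curve; % inhibition vs untreated control, GI50 from curve fit.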

For the compound `C=CC(=O)Nc1cc(C)ccc1Nc1nc(Nc2cc(C(C)=O)ccc2C)ncc1C(F)(F)F` [Compound I-84, N-(2-((2-((5-Acetyl-2-methylphenyl)amino)-5-(trifluoromethyl)pyrimidin-4-yl)amino)-5-methylphenyl)acrylamide], the GI50 in test [1] is 101 to 500 nM; in test [2], 501 to 999 nM; in test [3] it was 101 to 500 nM.
Take `C=CC(=O)Nc1ccccc1Nc1nc(Nc2cc(OC)ncc2C)ncc1C(F)(F)F` [Compound I-85, N-(2-((2-((2-Methoxy-5-methylpyridin-4-yl)amino)-5-(trifluoromethyl)pyrimidin-4-yl)amino)phenyl)acrylamide]: the GI50 is below 100 nM in test [1], 101 to 500 nM in test [2] and below 100 nM in test [3].
For `C=CC(=O)Nc1ccccc1Nc1nc(Nc2cc(OC)nc(N3CCN(C(C)=O)CC3)c2)ncc1C(F)(F)F` [Compound I-92], the GI50 in test [1], in test [2] and in test [3] was below 100 nM throughout.
For `C=CC(=O)Nc1cc(C)ccc1Nc1nc(Nc2cc(OC)nc(N3CCN(C(C)=O)CC3)c2)ncc1C(F)(F)F` [Compound I-93, N-(2-((2-((2-(4-Acetylpiperazin-1-yl)-6-methoxypyridin-4-yl)amino)-5-(trifluoromethyl)pyrimidin-4-yl)amino)-5-methylphenyl)acrylamide], the GI50 in test [1], in test [2] and in test [3] was below 100 nM in each case.
In the case of `C=CC(=O)Nc1cc(C)ccc1Nc1nc(Nc2cc(OC)nc(OC)c2)ncc1C(F)(F)F` [Compound I-96], the GI50 in test [1] is below 100 nM; in test [2], below 100 nM; in test [3] it was 101 to 500 nM.
For `C=CC(=O)Nc1cc(C)ccc1Nc1nc(Nc2cc(NCCOC)nc(OC)c2)ncc1C(F)(F)F` [Compound I-294, N-(2-((2-((2-methoxy-6-((2-methoxyethyl)amino)pyridin-4-yl)amino)-5-(trifluoromethyl)pyrimidin-4-yl)amino)-5-methylphenyl)acrylamide], the 50% growth inhibitory concentration (GI50) in test [1], in test [2] and in test [3] was below 100 nM throughout.
On to `C=CC(=O)Nc1cc(C)ccc1Nc1nc(Nc2cc(N[C@H]3CC[C@](C)(O)CC3)nc(OC)c2)ncc1C(F)(F)F` [Compound I-327, N-(2-((2-((2-((trans-4-hydroxy-4-methylcyclohexyl)amino)-6-methoxypyridin-4-yl)amino)-5-(trifluoromethyl)pyrimidin-4-yl)amino)-5-methylphenyl)acrylamide], for which the GI50 in test [2] and in test [3] was below 100 nM throughout.
For the compound `C=CC(=O)Nc1cc(C)ccc1Nc1nc(Nc2nc(OC)ncc2Cl)ncc1C(F)(F)F` [Compound I-344, N-(2-((2-((5-chloro-2-methoxypyrimidin-4-yl)amino)-5-(trifluoromethyl)pyrimidin-4-yl)amino)-5-methylphenyl)acrylamide], the GI50 in test [1] was in the range of 101 to 500 nM; in test [2], 501 to 999 nM; in test [3] it was 101 to 500 nM.
Consider `C=CC(=O)Nc1cc(C)ccc1Nc1nc(Nc2nc(OC)ncc2C#N)ncc1C(F)(F)F` [Compound I-346, N-(2-((2-((5-cyano-2-methoxypyrimidin-4-yl)amino)-5-(trifluoromethyl)pyrimidin-4-yl)amino)-5-methylphenyl)acrylamide], for which the GI50 is 101 to 500 nM in test [1], 501 to 999 nM in test [2] and 101 to 500 nM in test [3].
Take `C=CC(=O)Nc1cc(C)ccc1Nc1nc(Nc2nc(OC)ncc2C)ncc1C(F)(F)F` [Compound I-347, N-(2-((2-((2-methoxy-5-methylpyrimidin-4-yl)amino)-5-(trifluoromethyl)pyrimidin-4-yl)amino)-5-methylphenyl)acrylamide]: the GI50 in test [1] is 101 to 500 nM; in test [2], 501 to 999 nM; in test [3], below 100 nM.
Taken in the same sequence, the figures for `C=CC(=O)Nc1cc(C)ccc1Nc1nc(Nc2nc(OC)ncc2OC)ncc1C(F)(F)F` [Compound I-349, N-(2-((2-((2,5-dimethoxypyrimidin-4-yl)amino)-5-(trifluoromethyl)pyrimidin-4-yl)amino)-5-methylphenyl)acrylamide] were 101 to 500 nM, above 1000 nM and 101 to 500 nM.
As for `C=CC(=O)Nc1cc(C)ccc1Nc1nc(Nc2ncc(C(F)(F)F)c(OC)n2)ncc1C(F)(F)F` [Compound I-354, N-(2-((2-((4-methoxy-5-(trifluoromethyl)pyrimidin-2-yl)amino)-5-(trifluoromethyl)pyrimidin-4-yl)amino)-5-methylphenyl)acrylamide], the GI50 was in the range of 101 to 500 nM in test [1], 501 to 999 nM in test [2] and 501 to 999 nM in test [3].
`C=CC(=O)Nc1cc(C)ccc1Nc1nc(Nc2nc(OC)ncc2C(F)(F)F)ncc1C(F)(F)F` [Compound I-355, N-(2-((2-((2-methoxy-5-(trifluoromethyl)pyrimidin-4-yl)amino)-5-(trifluoromethyl)pyrimidin-4-yl)amino)-5-methylphenyl)acrylamide]: the concentration for 50% growth inhibition (GI50) is 501 to 999 nM in test [1], above 1000 nM in test [2] and 101 to 500 nM in test [3].
On the same counts, the results for `C=CC(=O)Nc1cc(C)ccc1Nc1nc(Nc2ncc(F)c(OC)n2)ncc1C(F)(F)F` [Compound I-356, N-(2-((2-((5-fluoro-4-methoxypyrimidin-2-yl)amino)-5-(trifluoromethyl)pyrimidin-4-yl)amino)-5-methylphenyl)acrylamide] are 501 to 999 nM, above 1000 nM and 501 to 999 nM.
Taken in the same sequence, the figures for `C=CC(=O)Nc1cc(C)ccc1Nc1nc(Nc2nc(OC)ncc2F)ncc1C(F)(F)F` [Compound I-357, N-(2-((2-((5-fluoro-2-methoxypyrimidin-4-yl)amino)-5-(trifluoromethyl)pyrimidin-4-yl)amino)-5-methylphenyl)acrylamide] were below 100 nM, 501 to 999 nM and 101 to 500 nM.
On the same counts, the results for `C=CC(=O)Nc1cc(C)ccc1Nc1nc(Nc2cc(OCCOC)ncc2C)ncc1C(F)(F)F` [Compound I-359, N-(2-((2-((2-(2-methoxyethoxy)-5-methylpyridin-4-yl)amino)-5-(trifluoromethyl)pyrimidin-4-yl)amino)-5-methylphenyl)acrylamide] are 501 to 999 nM, above 1000 nM and 101 to 500 nM.
As for `C=CC(=O)Nc1cc(C)ccc1Nc1nc(Nc2nc(OC)ccc2Cl)ncc1C(F)(F)F` [Compound I-360, N-(2-((2-((3-chloro-6-methoxypyridin-2-yl)amino)-5-(trifluoromethyl)pyrimidin-4-yl)amino)-5-methylphenyl)acrylamide], the GI50 in test [1] was above 1000 nM; in test [2], above 1000 nM; in test [3], 101 to 500 nM.
Take `C=CC(=O)Nc1cc(C)ccc1Nc1nc(Nc2cc(OC)cnc2Cl)ncc1C(F)(F)F` [Compound I-361, N-(2-((2-((2-chloro-5-methoxypyridin-3-yl)amino)-5-(trifluoromethyl)pyrimidin-4-yl)amino)-5-methylphenyl)acrylamide]: the GI50 was in the range of 101 to 500 nM in test [1], 501 to 999 nM in test [2] and 101 to 500 nM in test [3].
With `C=CC(=O)Nc1cc(C)ccc1Nc1nc(Nc2nc(O)ncc2C)ncc1C(F)(F)F` [Compound I-364, N-(2-((2-((2-hydroxy-5-methylpyrimidin-4-yl)amino)-5-(trifluoromethyl)pyrimidin-4-yl)amino)-5-methylphenyl)acrylamide], the GI50 in test [1] was 101 to 500 nM; in test [2], 101 to 500 nM; in test [3] it was below 100 nM.
Regarding `C=CC(=O)Nc1cc(C)c(F)cc1Nc1nc(Nc2nc(OC)ncc2Cl)ncc1C(F)(F)F` [Compound I-374, N-(2-((2-((5-chloro-2-methoxypyrimidin-4-yl)amino)-5-(trifluoromethyl)pyrimidin-4-yl)amino)-4-fluoro-5-methylphenyl)acrylamide], the GI50 in test [1] was 101 to 500 nM; in test [2], 101 to 500 nM; in test [3] it was below 100 nM.
For `C=CC(=O)Nc1cc(C)ccc1Nc1nc(Nc2cc(OCCO)ncc2C)ncc1C(F)(F)F` [Compound I-376, N-(2-((2-((2-(2-hydroxyethoxy)-5-methylpyridin-4-yl)amino)-5-(trifluoromethyl)pyrimidin-4-yl)amino)-5-methylphenyl)acrylamide], the GI50 in test [1] was 101 to 500 nM; in test [2], 501 to 999 nM; in test [3], 101 to 500 nM.
In the case of `C=CC(=O)Nc1cc(C)c(F)cc1Nc1nc(Nc2nc(OC)ncc2C)ncc1C(F)(F)F` [Compound I-377, N-(4-fluoro-2-((2-((2-methoxy-5-methylpyrimidin-4-yl)amino)-5-(trifluoromethyl)pyrimidin-4-yl)amino)-5-methylphenyl)acrylamide], the figures for the GI50 in test [1], in test [2] and in test [3] were below 100 nM, above 1000 nM and 101 to 500 nM, respectively.

Broadly, the GI50 is the concentration giving 50% growth inhibition.
